7 compounds from article PMC8855368 (Journal of medicinal chemistry, 2019) can be followed below.

What is called IC50 is the midpoint of a concentration-inhibition curve.

One series relates to HCT116. Nature of the series: MTT cell viability assay, HCT116. Format: cell-based. Conditions: read-out: IC50-MTT HCT116; HCT116, 72 h; values of two independent experiments. (In general: Formazan colour is commonly taken as a measure of viable cells.)
The target of the next series is T1, GSTO1–1 (Homo sapiens, UniProt P78417).
T1 sequence (P78417 1-241): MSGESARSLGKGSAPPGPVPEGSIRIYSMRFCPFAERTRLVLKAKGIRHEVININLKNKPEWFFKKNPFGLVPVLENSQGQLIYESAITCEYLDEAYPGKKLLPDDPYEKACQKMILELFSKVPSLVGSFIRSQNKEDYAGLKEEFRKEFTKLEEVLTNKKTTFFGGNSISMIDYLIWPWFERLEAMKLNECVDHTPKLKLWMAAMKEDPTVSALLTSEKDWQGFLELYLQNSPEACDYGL
Conditions: GSTO1–1 binding assay.

Series [1] can be described thus: Stability in 20% acetonitrile/PBS buffer by LC–MS. Format: physicochemical. The settings on record: room temperature overnight.

With `C=CC(=O)Nc1nc(-c2ccc(O)cc2)cs1` [Compound 25, N-(4-(4-Hydroxylphenyl)thiazol-2-yl)acrylamide], the IC50 in the series on HCT116 was found to be 7.1 µM.
Consider `C=CC(=O)N1CCC(c2ccccc2)CC1` [Compound 7, 1-(4-Phenylpiperidin-1-yl)prop-2-en-1-one], for which the “GSTO1–1 binding activity (in words)” value at GSTO1–1 is reported as “did not possess significant GSTO1–1 binding activity”.
On the same count and under the same terms, for `C=CC(=O)Nc1cnn(-c2ccccc2)c1` [Compound 5, N-(1-Phenyl-1H-pyrazol-4-yl)acrylamide] the value was “inactive”; for `C=CC(=O)N1CCC(Cc2ccccc2)CC1` [Compound 8, 1-(4-Benzylpiperidin-1-yl)prop-2-en-1-one], “did not possess significant GSTO1–1 binding activity”.
Regarding `C=CC(=O)Nc1cnn(Cc2ccccc2)c1` [Compound 6, N-(1-Benzyl-1H-pyrazol-4-yl)acrylamide], on GSTO1–1, the “GSTO1–1 binding activity (in words)” value is “inactive”.
`C=CC(=O)N(Cc1cc(C)no1)c1nc(-c2ccccc2O)cs1` [Compound 49, N-((3-Methylisoxazol-5-yl)methyl)-N-(4-(2-hydroxylphenyl)thiazol-2-yl)acrylamide]: the “stability in 20% acetonitrile/PBS buffer solution” value in series [1] was “good stability”.
Take `C=CC(=O)Nc1nc(-c2ccccc2OC)cs1` [Compound 26, N-(4-(2-Methoxyphenyl)thiazol-2-yl)acrylamide]: the “GSTO1–1 binding activity (in words)” value at GSTO1–1 is “inactive”.
